What all share (conditions): HEK-293T
For assay [1], the system named is Hepatitis C virus. Kind of assay: Antiviral activity against pseudo HCV infected in human 293T cells assessed as inhibition of HCV pseudo particles entry at 5 uM after 72 hrs by luciferase reporter gene assay. The format is functional, Hepacivirus hominis. In general terms: In a reporter assay the amount or activity of a reporter protein is the signal.
Assay [2] deals with Hepatitis C virus. Put plainly: Antiviral activity against pseudo HCV infected in human 293T cells assessed as inhibition of HCV pseudo particles entry at 1 uM after 72 hrs by luciferase reporter gene assay. In kind it is functional, Hepacivirus hominis.
For assay [3], the system named is Vesicular stomatitis virus. Kind of assay: Antiviral activity against pseudo VSV infected in human 293T cells assessed as inhibition of vesicular stromatis G protein pseudo particles entry at 5 uM after 72 hrs by luciferase reporter gene assay. The format is functional.
Assay [4] deals with Vesicular stomatitis virus. Kind of assay: Antiviral activity against pseudo VSV infected in human 293T cells assessed as inhibition of vesicular stromatis G protein pseudo particles entry at 1 uM after 72 hrs by luciferase reporter gene assay. The format is functional.

In general, inhibition refers to the relative decrease from the control value, in per cent.

Take `CC1(C)CC[C@]2(C(=O)NCc3cn([C@@H]4O[C@H](CO)[C@@H](O[C@@H]5O[C@H](CO)[C@H](O)[C@H](O)[C@H]5O)[C@H](O)[C@H]4O)nn3)[C@H](O)C[C@]3(C)C(=CC[C@@H]4[C@@]5(C)CC[C@H](O)C(C)(C)[C@@H]5CC[C@]43C)[C@@H]2C1`: the inhibition at 5 µM with Hepatitis C virus [1] was determined as 14.6%; in assay [3], 47.3%. The inhibition at 1 µM with Hepatitis C virus [2] turned out to be 23.1%; in assay [4], 47%.

As to `CC1(C)CC[C@]2(C(=O)O[C@@H]3OC[C@@H](O)[C@H](O)[C@H]3O)[C@H](O)C[C@]3(C)C(=CC[C@@H]4[C@@]5(C)CC[C@H](O)C(C)(C)[C@@H]5CC[C@]43C)[C@@H]2C1`, the inhibition at 5 µM in the assay with Hepatitis C virus [1] is 77.7%; in assay [3], 13%. Besides, the values for the inhibition at 1 µM (in the assay with Hepatitis C virus [2]; in assay [4]) were 33.8% and 36.5%, respectively.

On to `CC(=O)OC[C@H]1O[C@@H](n2cc(CNC(=O)[C@]34CCC(C)(C)C[C@H]3C3=CC[C@@H]5[C@@]6(C)CC[C@H](O)C(C)(C)[C@@H]6CC[C@@]5(C)[C@]3(C)C[C@H]4O)nn2)[C@H](OC(C)=O)[C@@H](OC(C)=O)[C@H]1OC(C)=O`, for which the inhibition at 5 µM amounted to 66.5% in the assay with Hepatitis C virus [1] and 30.6% in assay [3]. The inhibition at 1 µM amounted to 20.4% in the assay on Hepatitis C virus [2] and 24.3% in assay [4].

On to `CC1(C)CC[C@]2(C(=O)NCc3cn([C@@H]4O[C@H](CO)[C@@H](O[C@H]5O[C@H](CO)[C@@H](O)[C@H](O)[C@H]5O)[C@H](O)[C@H]4O)nn3)[C@H](O)C[C@]3(C)C(=CC[C@@H]4[C@@]5(C)CC[C@H](O)C(C)(C)[C@@H]5CC[C@]43C)[C@@H]2C1`, for which the results for the inhibition at 5 µM (with Hepatitis C virus [1]; in assay [3]) were 29.7% and 48.1%, respectively. Further, the inhibition at 1 µM in the assay on Hepatitis C virus [2] stood at 9.3%; in assay [4] it was 25.8%.

`COC(=O)[C@@]12C=C[C@]3(C)C(=CC[C@@H]4[C@@]5(C)CC=CC(C)(C)[C@@H]5CC[C@]43C)[C@@H]1CC(C)(C)CC2`: the values for the inhibition at 5 µM (in the assay on Hepatitis C virus [1]; in assay [3]) were 14% and 33.9%, respectively. Also, the figures for the inhibition at 1 µM (with Hepatitis C virus [2]; in assay [4]) were 35.8% and 20.9%, respectively.

Take `CC1(C)CC[C@]2(C(=O)O)[C@H](O)C[C@]3(C)C(=CC[C@@H]4[C@@]5(C)CC[C@H](OS(=O)(=O)O)C(C)(C)[C@@H]5CC[C@]43C)[C@@H]2C1`: the results for the inhibition at 5 µM (in the assay with Hepatitis C virus [1]; in assay [3]) were 55.2% and 40.4%, respectively. Further, the figures for the inhibition at 1 µM (in the assay with Hepatitis C virus [2]; in assay [4]) were 33.4% and 39.1%, respectively.

Take `COC(=O)[C@]12CCC(C)(C)C[C@H]1[C@H]1C(O)C[C@@H]3[C@@]4(C)CC[C@H](O)C(C)(C)[C@@H]4CC[C@@]3(C)[C@]1(C)C[C@H]2O` (stereo partly drawn): the figures for the inhibition at 5 µM (in the assay with Hepatitis C virus [1]; in assay [3]) were 51% and 43.5%, respectively. Moreover, the inhibition at 1 µM in the assay with Hepatitis C virus [2] worked out at 22.6%; in assay [4] it was 35.8%.

`COC(=O)[C@]12CCC(C)(C)C[C@H]1C1=CC[C@@H]3[C@@]4(C)CCC(=O)C(C)(C)[C@@H]4CC[C@@]3(C)[C@]1(C)CC2=O`: the inhibition at 5 µM with Hepatitis C virus [1] is 70.1%; in assay [3], -2.8%. Moreover, the values for the inhibition at 1 µM (with Hepatitis C virus [2]; in assay [4]) were 48.2% and -10%, respectively.

In the case of `CC(=O)OC[C@H]1O[C@@H](O[C@H]2[C@H](OC(C)=O)[C@@H](OC(C)=O)[C@H](n3cc(CNC(=O)[C@]45CCC(C)(C)C[C@H]4C4=CC[C@@H]6[C@@]7(C)CC[C@H](O)C(C)(C)[C@@H]7CC[C@@]6(C)[C@]4(C)C[C@H]5O)nn3)O[C@@H]2COC(C)=O)[C@H](OC(C)=O)[C@@H](OC(C)=O)[C@H]1OC(C)=O`, the inhibition at 5 µM was found to be 71.8% in the assay with Hepatitis C virus [1] and 32.1% in assay [3]. Moreover, the inhibition at 1 µM in the assay on Hepatitis C virus [2] was found to be 24.6%; in assay [4], 39%.

As for `CC(=O)O[C@@H]1[C@@H](OC(C)=O)[C@H](OC(=O)[C@]23CCC(C)(C)C[C@H]2C2=CC[C@@H]4[C@@]5(C)CC[C@H](O)C(C)(C)[C@@H]5CC[C@@]4(C)[C@]2(C)C[C@H]3O)OC[C@H]1OC(C)=O`, the figures for the inhibition at 5 µM (in the assay on Hepatitis C virus [1]; in assay [3]) were 70.7% and 21.7%, respectively. For the same compound, the inhibition at 1 µM in the assay on Hepatitis C virus [2] turned out to be 17.5%; in assay [4], 20.1%.

Turning to `CC1(C)CC[C@]2(C(=O)O)[C@H](O)C[C@]3(C)C(=CC[C@@H]4[C@@]5(C)CCC(N)C(C)(C)[C@@H]5CC[C@]43C)[C@@H]2C1` (stereo partly drawn), the values for the inhibition at 5 µM (with Hepatitis C virus [1]; in assay [3]) were 10.5% and 28.4%, respectively. The inhibition at 1 µM stood at 12.1% with Hepatitis C virus [2] and 23.6% in assay [4].

As for `COC(=O)[C@]12CCC(C)(C)C[C@H]1C1=CC[C@@H]3[C@@]4(C)CCC(=O)C(C)(C)[C@@H]4CC[C@@]3(C)[C@]1(C)C[C@H]2O`, the inhibition at 5 µM in the assay with Hepatitis C virus [1] turned out to be 64.7%; in assay [3] it was 55.4%. For the same compound, the values for the inhibition at 1 µM (in the assay on Hepatitis C virus [2]; in assay [4]) were 3.5% and 21.5%, respectively.

With `CC1(C)CC[C@]2(C(=O)O[C@@H]3O[C@H](CO)[C@@H](O[C@@H]4O[C@H](CO)[C@H](O)[C@H](O)[C@H]4O)[C@H](O)[C@H]3O)[C@H](O)C[C@]3(C)C(=CC[C@@H]4[C@@]5(C)CC[C@H](O)C(C)(C)[C@@H]5CC[C@]43C)[C@@H]2C1`, the figures for the inhibition at 5 µM (with Hepatitis C virus [1]; in assay [3]) were 40.1% and 16.7%, respectively. For the same compound, the inhibition at 1 µM in the assay on Hepatitis C virus [2] is 32.7%; in assay [4] it was 22.6%.

As for `COC(=O)[C@]12CCC(C)(C)C[C@H]1C1=CC[C@@H]3[C@@]4(C)CC[C@H](OC(C)=O)C(C)(C)[C@@H]4CC[C@@]3(C)[C@]1(C)C[C@H]2OC(C)=O`, the inhibition at 5 µM in the assay with Hepatitis C virus [1] was 20.1%; in assay [3] it was 24.2%. The inhibition at 1 µM in the assay with Hepatitis C virus [2] is 13.5%; in assay [4], 15.8%.

As for `CC1(C)CC[C@]2(C(=O)NCCCNC(=O)[C@]34CCC(C)(C)C[C@H]3C3=CC[C@@H]5[C@@]6(C)CC[C@H](O)C(C)(C)[C@@H]6CC[C@@]5(C)[C@]3(C)C[C@H]4O)[C@H](O)C[C@]3(C)C(=CC[C@@H]4[C@@]5(C)CC[C@H](O)C(C)(C)[C@@H]5CC[C@]43C)[C@@H]2C1`, the figures for the inhibition at 5 µM (in the assay on Hepatitis C virus [1]; in assay [3]) were 58.2% and 27.6%, respectively. The inhibition at 1 µM in the assay with Hepatitis C virus [2] came out at 44.6%; in assay [4], 18.7%.

With `CC(=O)OC[C@H]1O[C@@H](n2cc(CNC(=O)[C@]34CCC(C)(C)C[C@H]3C3=CC[C@@H]5[C@@]6(C)CC[C@H](O)C(C)(C)[C@@H]6CC[C@@]5(C)[C@]3(C)C[C@H]4O)nn2)[C@H](OC(C)=O)[C@@H](OC(C)=O)[C@@H]1O[C@H]1O[C@H](COC(C)=O)[C@@H](O[C@H]2O[C@H](COC(C)=O)[C@@H](OC(C)=O)[C@H](OC(C)=O)[C@H]2OC(C)=O)[C@H](OC(C)=O)[C@H]1OC(C)=O`, the inhibition at 5 µM turned out to be 62.9% in the assay with Hepatitis C virus [1] and 14% in assay [3]. For the same compound, the inhibition at 1 µM in the assay on Hepatitis C virus [2] is 45.4%; in assay [4], 17.7%.

Take `COC(=O)[C@@]12C=C[C@]3(C)C(=CC[C@@H]4[C@@]5(C)CC[C@H](O)C(C)(C)[C@@H]5CC[C@]43C)[C@@H]1CC(C)(C)CC2`: the inhibition at 5 µM with Hepatitis C virus [1] is 27.9%; in assay [3] it was 18.8%. Moreover, the values for the inhibition at 1 µM (in the assay with Hepatitis C virus [2]; in assay [4]) were 12.3% and 15.2%, respectively.

(Values after ChEMBL document CHEMBL2385072, “Development of oleanane-type triterpenes as a new class of HCV entry inhibitors” (J Med Chem, 2013).)
